Results as given in patent US20050090428A1, “Porphyrins with virucidal activity” (priority 2002, published 2005).

Legend:
HIV-189.6 = experiment: Inactivation of HIV-1 89.6 infectivity; type: cell-based
SIVmac1A11 = experiment: Inactivation of SIVmac1A11 infectivity; type: cell-based, SIV
MAGI cells = experiment: Trypan blue exclusion cytotoxicity test; settings: four concentrations of porphyrin
Protocol: A standard trypan blue exclusion test (Strober, Trypan blue exclusion test of cell viability, p. A.3.3-A.3.4, in J. E. Coligan and A. M. Kruisbeek (ed.), Current protocols in immunology, Wiley-Greene, New York, N.Y., 1994) was used. Compounds at a concentration of 50 μg/ml in growth medium were added to a 96-well plate with MAGI cells. After 72 hr cells were detached by standard trypsin solution (0.25% trypsin-0.05% EDTA) and diluted 1:10 in growth medium. To test cell viability, 1 part of 0.4% trypan blue and 9 parts of diluted cells were mixed, incubated the mixture about 2 min at room temperature, and applied a drop of the trypan blue/cell mixture to a hemacytometer. Using a binocular microscope, the stained (nonviable) and unstained (viable) cells were then counted. The fraction of viable cells was calculated as the number of unstained cells in the wells treated with compound as a percentage of the number in control wells.
The selective index value was defined as the CC50/EC50 ratio.
A trypan blue exclusion test to determine possible toxicity of the test compounds. Compounds at a concentration of 50 μg/ml in growth medium were added to MAGI cells. […] After 72 hr, a trypan blue assay was used to compare cell viability in cells treated with compounds to untreated cells.

[1] = target: T1, binding of HIV-1 IIIB gp120 to CD4 (Human immunodeficiency virus type 1 group M subtype B, UniProt P04578); experiment: gp120-CD4 binding assay (ELISA); settings: 1 hr at room temperature
T1 construct: The recombinant IIB gp120 protein (baculovirus-expressed) was obtained from Intracel; purchased Intracel (Cambridge, Mass.) for gp120; host or cells: baculovirus-expressed (gp120)
Protocol: To investigate the possible effect of porphyrin compounds on binding of HIV-1 IIIB gp120 to CD4, a gp120 CD4 binding assay was developed. The assay was developed as a modification of a capture gp120 ELISA kit (Intracel Corporation). Briefly, a 96-well plate was coated with soluble CD4 and 0.5 μg of HIV-1 IIIB gp120 per well was incubated in the presence or absence of test compounds for 1 hr at room temperature. After four washes with buffer to remove unbound proteins, the bound gp120 was detected by anti-gp120 peroxidase-conjugated antibodies and quantitated by the protocol provided by the manufacturer.

[2] = target: T2, HIV-1 Env protein (HXB2 Env) (Human immunodeficiency virus type 1 group M subtype B, UniProt P04578); type: cell-based
T2 construct: expressed in transfected cells; host or cells: 293T cells transfected with pIIIenv3-1 plus pCMVTAT; cocultured with 3T3 cells expressing CD4 and CXCR4

IIIB Env of HIV 1 = IIIB Env of HIV 1 (Human immunodeficiency virus type 1 group M subtype B, UniProt P03375); type: cell-based
HIV-1 IIIB = experiment: Screening for virucidal activity against HIV-1 IIIB, MAGI cell assay
89.6 Env = 89.6 Env (Human immunodeficiency virus type 1 group M subtype B, UniProt Q73372); type: cell-based, HIV-1
HSV-1(F) or HSV-2(G) = experiment: In vitro HSV inactivation, plaque assay on Vero cells; type: cell-based, herpes simplex virus; settings: room temperature, in the dark, up to 60 minutes
Protocol: Either HSV-1(F) or HSV-2(G) (10^7 pfu) was mixed with 1 ml of porphyrin at the concentration indicated in Dulbecco's modified Eagle's medium (DME) with 1% newborn calf serum. All assays were performed in duplicate. All tubes were wrapped in foil to keep out light, and ambient room light was reduced as much as was practicable. Virus and porphyrin were incubated together at room temperature for times up to 60 minutes (Table 2). Following incubation, 10 fold serial dilutions were performed in DME with 1% newborn serum, using tubes wrapped in foil. Virus was diluted 20,000 fold and plated on Vero cells. Following a 2 hour incubation with the cells, the inoculum was removed and cells were overlaid with DME with 1% newborn calf serum and 0.2% human gamma globulin. Cells were fixed and stained, and plaques counted, 2 days after infection.

Sequence of 89.6 Env (Q73372 32-719 limits assumed): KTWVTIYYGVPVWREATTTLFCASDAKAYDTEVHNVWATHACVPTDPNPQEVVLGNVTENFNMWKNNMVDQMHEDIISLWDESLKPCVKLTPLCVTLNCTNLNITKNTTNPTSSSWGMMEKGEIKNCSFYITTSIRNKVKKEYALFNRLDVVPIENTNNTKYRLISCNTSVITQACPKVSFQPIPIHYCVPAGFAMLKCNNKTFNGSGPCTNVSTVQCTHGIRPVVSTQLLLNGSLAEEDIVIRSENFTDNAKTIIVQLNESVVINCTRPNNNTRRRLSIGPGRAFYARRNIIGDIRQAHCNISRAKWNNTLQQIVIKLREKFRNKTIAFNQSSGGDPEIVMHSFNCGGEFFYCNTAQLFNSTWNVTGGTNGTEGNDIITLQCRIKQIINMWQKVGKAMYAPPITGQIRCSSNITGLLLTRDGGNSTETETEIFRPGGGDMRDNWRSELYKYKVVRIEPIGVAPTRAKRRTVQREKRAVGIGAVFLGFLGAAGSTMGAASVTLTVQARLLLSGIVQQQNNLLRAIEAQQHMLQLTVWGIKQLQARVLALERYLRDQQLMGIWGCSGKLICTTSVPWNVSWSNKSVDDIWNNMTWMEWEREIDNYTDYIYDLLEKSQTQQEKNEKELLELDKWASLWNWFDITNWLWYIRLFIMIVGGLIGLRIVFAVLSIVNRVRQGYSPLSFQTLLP
Sequence of 89.6 Env (Q73372 509-719 partner limits assumed): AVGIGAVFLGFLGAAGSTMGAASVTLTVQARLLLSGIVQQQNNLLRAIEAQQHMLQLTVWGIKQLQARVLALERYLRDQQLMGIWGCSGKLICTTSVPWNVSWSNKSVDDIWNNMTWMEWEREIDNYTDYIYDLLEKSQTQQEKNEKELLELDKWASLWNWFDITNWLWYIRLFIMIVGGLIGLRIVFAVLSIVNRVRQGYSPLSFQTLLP

Molecule	HIV-1 89.6 inactivated (HIV-189.6) [%]	SIVmac1A11 inactivated (SIVmac1A11) [%]	CC50 (concentration that reduced the viability of cells by 50%) (MAGI cells) [µg/mL]	inhibition of gp120/CD4 binding in words [1]	Presence of nuclei in syncytia, pIIIenv X4, 6 h [2]	inhibition of HIV-induced cell fusion in words [2]	inhibition of HIV-induced cell fusion in words (IIIB Env of HIV 1)	activity at low concentration (HIV-1 IIIB; 0.5 μg/ml, HIV-1 IIIB, MAGI cells)	kinetics of inactivation of HIV-1 IIIB (HIV-1 IIIB; 2 to 60 minutes)	activity against HIV in words (HIV-1 IIIB; MAGI screening assay, HIV-1 IIIB)	infected cells remaining (HIV-1 IIIB; after 2 min incubation)	Presence of nuclei in syncytia, VV89.6 envt R5, 6 h (89.6 Env)	Presence of nuclei in syncytia, VV89.6 envt R5, 23 h (89.6 Env)	Presence of nuclei in syncytia, VV89.6 envt X4, 23 h (89.6 Env)	inactivating HSVs (HSV-1(F) or HSV-2(G))	selective index CC50/EC50 (HIV-1 IIIB)
sulfonated 5,10,15,20-tetra-naphthalen-1-yl-porphyrin [TNapPS]	76	88	75	completely inhibit binding	−	complete inhibition	Complete inhibition	significant activity	inhibited viral growth almost completely	most active	approximately 1%					
O=S(=O)(O)c1ccc(-c2c3nc(c(-c4ccc(S(=O)(=O)O)cc4)c4ccc([nH]4)c(-c4ccc(S(=O)(=O)O)cc4)c4nc(c(-c5ccccc5)c5ccc2[nH]5)C=C4)C=C3)cc1 [TPPS3, meso-tetraphenylporphyrin trisulfonate]			50		−							−/4+	−/4+ (key: 4+: more than 50% of nuclei are in syncytia; 3+: 30 to 50% of nuclei are in syncytia; 2+: 30 to 10% of nuclei are in syncytia; +: less than 10% of nuclei are in syncytia; −: no syncytia were observed)	1+/4+ (key: 4+: more than 50% of nuclei are in syncytia; 3+: 30 to 50% of nuclei are in syncytia; 2+: 30 to 10% of nuclei are in syncytia; +: less than 10% of nuclei are in syncytia; −: no syncytia were observed)	active	10
